Source: US20060057665A1, “Galectin-14 therapeutic molecule and uses thereof” (The University of Melbourne, priority 2001, published 2006)

Columns and labels:
[1] = tested on: GST-galectin-14; assay: Saccharide inhibition of GST-galectin-14 induced hemagglutination; format: cell-based, rabbit; conditions: 0.28 μM GST-galectin-14; sugars 0.78-100 mM
Procedure: FIG. 14 is an image of a hemagglutination assay using GST-galectin-14 fusion protein. Agglutination of rabbit erythrocytes was assayed in a 96-well microtiter plate. Assays were conducted in the presence (2, 3, 4, and 5) or absence (1 and 6) of 0.28 μM recombinant GST-galectin-14, the minimum concentration to induce agglutination. Increasing concentrations (0.78-100 mM) of lactose (2), galactose (3), or N-acetyl-glucosamine (4) were added to inhibit agglutination. In the presence of GST-galectin-14 without sugar (5) the rabbit erythrocytes form a “mat” at the bottom of the wells. The assay buffer DES alone (1) and 3 μM rGST (6) were included as negative controls. Trypsin-treated, glutaraldehyde fixed rabbit erythrocytes were prepared and tested in an agglutination assay according to the method of Nowak et al. (Nowak et al. (1976) supra). Agglutination assays were performed in 96-well V-shaped microtiter plates with serial 2-fold dilutions of samples in 25 μl of DES (0.15 M NaCl, 2 mM EDTA, 2 mM dithiothreitol), 50 μl of 0.5% (w/v) BSA in 0.15 M NaCl and 25 μl of a 4% suspension of rabbit erythrocytes. The plates were shaken vigorously for 30 s, and agglutination was read after the plates had stood at room temperature for 1 h. Agglutinated erythrocytes formed a “mat” on the bottom of the well. For assessment of the inhibitory effects of saccharides, lactose, galactose, and N-acetyl-glucosamine were serially diluted in 25 μl of 0.15 M NaCl prior to the addition of recombinant protein in DES, 25 μl of 1% (w/v) BSA in 0.15 M NaCl, and 4% erythrocytes in PBS. The minimum concentration of GST-galectin-14 that gave mat formation (0.28 μM) was used in the saccharide inhibition assay. For assessment of the effects of antibody on GST-galectin-14 hemagglutination, ascites and supernatants from monoclonal antibodies and polyclonal rabbit sera all raised to recombinant galectin-14 were serially diluted in 25 μl of 0.15 M NaCl prior to the addition of recombinant protein in DES, 25 μl of 1% (w/v) BSA in 0.15 M NaCl, and 4% erythrocytes in PBS. […]

[2] = tested on: GST-galectin-14 binding to laminin; assay: Lactose inhibition of GST-galectin-14 binding to immobilised laminin; conditions: 0.3 M lactose added
Procedure: FIG. 17 is an image of the saturation binding of GST-galectin-14 fusion protein to immobilised laminin. Laminin binding of GST-galectin-14 fusion protein was assayed using a solid-phase binding assay in a 96-well microtitre plate. Serial dilutions of GST-galectin-14 (▪) and GST (▴) were added to microtitre wells containing laminin. 0.3 M Lactose was added to GST-galectin-14 to inhibit binding (◯). The level of bound protein was monitored by the binding of rabbit anti-GST HRP antibody developed with TMB substrate and detected by a change in absorbance at 450 nm. Laminin binding activity was measured according to the method of Mazurek et al. with some modification. Briefly, the wells of a 96-well microtitre plate were coated with laminin from Engelbreth-Holm-Swarm murine sarcoma (Sigma) at 1 μg/100 μl of carbonate coating buffer (15 mM Na2CO3, 35 mM NaHCO3, pH 9.6) per well overnight at 4° C. Non-specific binding sites were blocked with 200 μl of 0.5% Tween 20 in PBS for 1 h. Plates were washed 3 times in 0.05% Tween 20 PBS and incubated with 50 μl serial dilutions of GST-galectin-14 or GST alone, diluted in 0.5% Tween 20 PBS, for 1.5 h at 37° C. Control wells contained 0.3 M lactose. […] The reaction was terminated with 100 μl 2 M sulphuric acid and the colour change monitored using a dual wavelength mode plate reader (Bio-tek instruments) at 450 nm, ref 690 nm.

[3] = tested on: rabbit erythrocytes; assay: Hemagglutination assay on trypsin-treated, glutaraldehyde fixed rabbit erythrocytes; format: cell-based; conditions: negative control protein, 3 μM rGST
Procedure: Trypsin-treated, glutaraldehyde fixed rabbit erythrocytes were prepared and tested in an agglutination assay according to the method of Nowak et al. (Nowak et al. (1976) supra). Agglutination assays were performed in 96-well V-shaped microtiter plates with serial 2-fold dilutions of samples in 25 μl of DES (0.15 M NaCl, 2 mM EDTA, 2 mM dithiothreitol), 50 μl of 0.5% (w/v) BSA in 0.15 M NaCl and 25 μl of a 4% suspension of rabbit erythrocytes. The plates were shaken vigorously for 30 s, and agglutination was read after the plates had stood at room temperature for 1 h. Agglutinated erythrocytes formed a “mat” on the bottom of the well. For assessment of the inhibitory effects of saccharides, lactose, galactose, and N-acetyl-glucosamine were serially diluted in 25 μl of 0.15 M NaCl prior to the addition of recombinant protein in DES, 25 μl of 1% (w/v) BSA in 0.15 M NaCl, and 4% erythrocytes in PBS. The minimum concentration of GST-galectin-14 that gave mat formation (0.28 μM) was used in the saccharide inhibition assay. For assessment of the effects of antibody on GST-galectin-14 hemagglutination, ascites and supernatants from monoclonal antibodies and polyclonal rabbit sera all raised to recombinant galectin-14 were serially diluted in 25 μl of 0.15 M NaCl prior to the addition of recombinant protein in DES, 25 μl of 1% (w/v) BSA in 0.15 M NaCl, and 4% erythrocytes in PBS. […]

effect on binding of GST-galectin-14 to laminin [2]	Compound	lowest sugar concentration at which inhibition of agglutination becomes evident [1]	induction of hemagglutination [3]
–	CC(=O)N[C@H]1C(O)O[C@H](CO)[C@@H](O)[C@@H]1O (some centres unmarked) [N-acetyl-glucosamine]	50 mM	–
–	O=C[C@H](O)[C@@H](O)[C@@H](O)[C@H](O)CO [galactose]	12.5 mM	–
reduced to the level of the control	OC[C@H]1O[C@@H](O[C@H]2[C@H](O)[C@@H](O)C(O)O[C@@H]2CO)[C@H](O)[C@@H](O)[C@H]1O (some centres unmarked) [lactose]	0.78 mM	–
–	GST: GST moiety alone, used as negative control protein [reference compound]	–	does not
